# Reference: US20160152566A1, “TRICYCLIC PYRROLE COMPOUNDS, THEIR PREPARATION AND USE IN MEDICAMENTS” (INSTITUTO BIOMAR, S.A., priority 2013, published 2016)
# Key:
# [1] = tested on: chick chorioallantoic membrane; experiment: Chick chorioallantoic membrane (CAM) angiogenesis assay; assay type: in vivo; conditions: 48 h
# Experimental: Fertilised chick eggs were incubated horizontally at 38° C. in a humidified incubator, windowed by day 3 of incubation, and processed by day 8. The tested compound stock solution was added to a 1.2% solution of methylcellulose in water, and 10 μL drops of this solution were allowed to dry on a teflon-coated surface in a laminar flow hood. Then, the methylcellulose discs were implanted on the CAM, the eggs were sealed with adhesive tape and returned to the incubator for 48 h. Negative controls were always made with DMSO mixed with the methylcellulose. After the reincubation, the CAM was examined under a stereomicroscope. The assay was scored as positive when two independent observers reported a significant reduction of vessels in the treated area.
# HT1080 MMP-2 = experiment: Gelatin zymography, HT1080 cells, MMP-2; assay type: cell-based, Human; conditions: 24 h
# Experimental: BAE or HT1080 cells were grown in 6-well plates at 75% subconfluency in 6-well plates, medium was aspirated, cells were washed twice with phosphate-buffered saline (PBS) and each well received 1.5 ml of DMEM/0.1% BSA containing 200 KIU of Aprotinin/mL. Additionally, some wells received the indicated concentration of AD0157. After 24 h of incubation, conditioned media were collected. To obtain the cell extracts, the cells were washed twice with PBS and harvested by scrapping into 0.5 mL of 0.2% Triton X-100 in 0.1 M Tris/HCl containing 200 KIU aprotinin/mL. Media were centrifuged at 1000×g and 4° C. for 20 min, and used for zymography. Duplicates were used to determine cell number with a Coulter counter.
# The gelatinolytic activity of MMP-2 delivered to the conditioned media and cell extracts were detected in gelatinograms. Samples were subjected to non-reducing SDS/PAGE as above but with gelatin (1 mg/mL) added to the 10% resolving gel. After electrophoresis, gels were washed twice with 50 mM Tris/HCl, pH 7.4, supplemented with 2% Triton X-100, and twice with 50 mM Tris/HCl, pH 7.4. […] Then, the gels were stained with Commassie blue R-250 and the bands of gelatinase activity could be detected as non-stained bands in a dark, stained background.
# Quantitative analysis of zymograms and gelatinograms was performed with the Scion Image 4.0.3.2 Program.
# BAE cells [2] = experiment: Viability (MTT) under tube formation conditions; assay type: cell-based, Bovine; conditions: 7 h, at the concentrations used to inhibit differentiation
# Experimental: (§1) Matrigel (50 μL of about 10.5 mg/mL) at 4° C. was used to coat each well of a 96-well plate and allowed to polymerise at 37° C. for a minimum of 30 min. 5×10^4 BAE cells were added with 200 μL DMEM. Finally, different amounts of the Compound AD0157 were added and incubated at 37° C. in a humidified chamber with 5% CO2. After incubation for 7 h, cultures were observed (40× and 100× magnifications) and photographed with a NIKON inverted microscope DIAPHOT-TMD (Nikon, Tokyo, Japan). Each concentration was tested in duplicate, and two different observers evaluated the inhibition of tube formation. To check the viability of endothelial cells after the treatment with the compounds in this assay, BAE cells were incubated in 96-well plate in the same conditions employed for the tube formation assay. After 7 h, cell viability in comparison to control untreated cells was determined by the addition of MTT essentially as described for the cell growth assay.
# HT1080 MMP-9 = experiment: Gelatin zymography, HT1080 cells, MMP-9; assay type: cell-based, Human; conditions: 24 h
# BAE cells [3] = experiment: Tube formation with Cytodex beads on Matrigel; assay type: cell-based, Bovine; conditions: 48 h
# Experimental: 3×10^4 BAE cells, were cultured with Cytodex beads, and allowed to adhere to them. The beads were added in 200 μL DMEM per well to a 96-well plate that has been previously prepared as follows: different amounts of the compound AD0157 were dispensed in a 96 well plate. Matrigel (50 μL) at 4° C. was used to coat each well of and allowed to polymerise at 37° C. for a minimum of 30 min. After polymerization, the beads carrying the endothelial cells were added to the wells. The plate was incubated at 37° C. in a humidified chamber with 5% CO2. After incubation for 48 h, cultures were observed using an optical microscope. Each concentration was tested in triplicate. Inhibition of tube formation was obtained at 9.3 uM.
# [4] = tested on: endothelial and tumor cells; experiment: Hoechst staining of nuclear morphology; assay type: cell-based; conditions: 14 h treatment, endothelial and most types of tumor cells
# Experimental: For Hoechst staining experiments, cells were seeded on 8-well chamber slides and grown to sub-confluence. After treatments for 14 h with the indicated concentrations of the compound in complete medium, cells were washed (PBS) and fixed (formalin solution, Sigma). Chamber slides were stained with Hoechst, mounted (DAKO Cytomation Fluorescent Mounting Medium, DAKO), and observed under a fluorescence microscope (Leica, TCS-NT).
# BAE cells [5] = experiment: MTT dye reduction cell growth assay, BAE cells; assay type: cell-based, Bovine; conditions: Bos taurus, 72 h, subconfluent BAE cells stimulated with 10% FBS, 3 days, read-out: IC50, growth of cultured BAE cells
# Experimental: The 3-(4,5-dimethylthiazol-2-yl)-2,5 diphenyltetrazolium bromide (MIT; Sigma Chemical Co., St. Louis, Mo.) dye reduction assay in 96-well microplates was used. The assay is dependent on the reduction of MTT by mitochondrial dehydrogenases of viable cell to a blue formazan product, which can be measured spectrophotometrically.
# 3×10^3 BAE cells in a total volume of 100 μl of complete medium were incubated in each well with serial dilutions of the compound AD0157 obtained as explained above. After 3 days of incubation in the dark (37° C., 5% CO2 in a humid atmosphere), 10 μl of MTT (5 mg/ml in PBS) was added to each well and the plate was incubated for further 4 h (37° C.). The resulting formazan was dissolved in 150 μl of 0.04 N HCl-2 propanol and read at 550 nm. All determinations were carried out in triplicate, independent experiments. IC50 values were calculated as those concentrations of AD0157 yielding 50% cell survival, taking the values obtained for control as 100%.
# BAE cells [6] = experiment: Capillary tube formation on Matrigel; assay type: cell-based, Bovine; conditions: BAECs, 7 h
# Experimental: as §1
# [7] = tested on: zebrafish intersegmental vessels; experiment: Zebrafish embryo intersegmental vessel assay (TGfli1:EGFPy1); assay type: in vivo; conditions: 24 h
# Experimental: Zebrafish embryos were generated by natural pairwise mating and maintained in embryo water at 28.5° C. […] Embryos were manually dechorionated with forceps at 24 h post-fertilization (hpf), they were arrayed in 96-well plate, one embryo per well, and incubated with 100 μl of the indicated concentrations of the tested compounds at 28.5° C. for 24 h. DMSO was used as both carrier of drugs and control. After incubation, fish embryos were anesthetized with tricaine (0.02%), placed on slides and examined under an epifluorescence Nikon microscope equipped with DS-L1 Nikon digital camera. Phenotypic changes were evaluated by two different observers.
structure (smiles),measurement,setting,value
C/C=C/C(=O)C1(O)CC2CC(C(=O)O)CC(C)C2C1C(=O)C1=C(/C=C/C)C(=O)C2(Cl)C3(CCCCCC)C(=O)NC(=O)C23C1=O (stereo not shown) [AD0157],% Inhibition,[1]; 0.1 nmol/CAM,20%
same,Positive/total,[1]; 0.1 nmol/CAM,1/5
same,% Inhibition,[1]; 0.5 nmol/CAM,83%
same,Positive/total,[1]; 0.5 nmol/CAM,5/6
same,% Inhibition,[1]; 1 nmol/CAM,100%
same,Positive/total,[1]; 1 nmol/CAM,6/6
same,% Inhibition,[1]; 5 nmol/CAM,100%
same,Positive/total,[1]; 5 nmol/CAM,6/6
same,MMP-2 levels in HT1080 conditioned media and cellular extracts,HT1080 MMP-2,no effect
same,Viability of endothelial cells,BAE cells [2],did not affect the viability
same,MMP-9 levels in HT1080 conditioned media and cellular extracts,HT1080 MMP-9,no effect
same,Concentration giving inhibition of tube formation,BAE cells [3],9.3 µM
same,Concentration inducing chromatin condensation,[4],above 5 μM
same,IC50,BAE cells [5],10.9 µM
same,Concentration giving complete inhibition of endothelial morphogenesis on Matrigel,BAE cells [6],5 µM
same,Concentration giving partial inhibition of endothelial morphogenesis on Matrigel,BAE cells [6],1 µM
same,% Inhibition,[7]; 5 μM,25%
same,Positive/total,[7]; 5 μM,5/20
same,% Inhibition,[7]; 10 μM,48%
same,Positive/total,[7]; 10 μM,12/25
same,% Inhibition,[7]; 25 μM,85%
same,Positive/total,[7]; 25 μM,17/20
